Measured values taken from patent US9629884B2, “Compositions and methods for increasing lifespan and health span” (GENEREX PHARMACEUTICALS, INC., priority 2009, dated 2017).

Assay: Blood glucose level in a diabetic patient (mercy treatment)
Type: in vivo, human
Settings: Diamicron 80 mg, 2 tablets every morning, before OEGJ
Method: Based on the above-mentioned rationale, the possibility of using OEGJ for the treatment of diabetes was tested in diabetics on the basis of mercy treatment. A person was first diagnosed with diabetes before undergoing hemorrhoid surgery a year before treatment. Their blood glucose level at that time was 24.0 mmol/L. They were put on insulin treatment for a week and started to take diabetes medicine (Diamicron 80 mg, 2 tablets every morning under fasting condition).

For `Cc1ccc(S(=O)(=O)NC(=O)NN2CC3CCCC3C2)cc1` (stereo not shown) [Diamicron], the “average blood glucose level during six-month period on the medication” value was 9.97 mmol/L.
